Experimental data from ChEMBL document CHEMBL1817621, “SAR studies of acidic dual γ-secretase/PPARγ modulators” (Bioorg Med Chem, 2011).
Calls of active or inactive are those of the source. The calls are words filed in the database; no cut-off is given here.

How the values were obtained:
[1] = biological target: T1, Prostaglandin G/H synthase 1 (Ovis aries, UniProt P05979)
T1 sequence (P05979 whole entry): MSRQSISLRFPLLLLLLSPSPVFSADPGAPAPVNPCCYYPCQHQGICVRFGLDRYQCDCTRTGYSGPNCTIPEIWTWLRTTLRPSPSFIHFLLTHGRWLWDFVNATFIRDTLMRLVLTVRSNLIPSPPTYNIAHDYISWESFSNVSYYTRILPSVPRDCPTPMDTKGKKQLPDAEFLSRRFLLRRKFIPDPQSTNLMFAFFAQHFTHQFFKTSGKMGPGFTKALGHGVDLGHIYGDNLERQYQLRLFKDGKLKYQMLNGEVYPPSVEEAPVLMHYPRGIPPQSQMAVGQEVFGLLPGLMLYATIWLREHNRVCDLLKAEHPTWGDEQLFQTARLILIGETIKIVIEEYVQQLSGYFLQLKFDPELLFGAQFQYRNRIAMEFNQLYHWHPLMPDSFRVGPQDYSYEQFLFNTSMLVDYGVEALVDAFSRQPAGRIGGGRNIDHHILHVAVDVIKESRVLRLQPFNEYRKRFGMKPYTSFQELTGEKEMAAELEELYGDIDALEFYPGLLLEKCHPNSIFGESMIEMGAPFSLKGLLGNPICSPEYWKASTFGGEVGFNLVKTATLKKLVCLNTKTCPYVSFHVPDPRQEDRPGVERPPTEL
Description: Inhibition of ovine COX-1 assessed as residual activity by measuring formation of 12-HHT from arachidonic acid by HPLC analysis

[2] = biological target: T2, Peroxisome proliferator-activated receptor alpha (Homo sapiens) (UniProt Q07869); test: Modulation of human PPARalpha-LBD expressed in african green monkey COS7 cells co-transfected with Gal4 assessed as activation of transactivation activity at 10 uM by luciferase assay; assay type: cell-based; settings: COS-7
T2 sequence (whole entry): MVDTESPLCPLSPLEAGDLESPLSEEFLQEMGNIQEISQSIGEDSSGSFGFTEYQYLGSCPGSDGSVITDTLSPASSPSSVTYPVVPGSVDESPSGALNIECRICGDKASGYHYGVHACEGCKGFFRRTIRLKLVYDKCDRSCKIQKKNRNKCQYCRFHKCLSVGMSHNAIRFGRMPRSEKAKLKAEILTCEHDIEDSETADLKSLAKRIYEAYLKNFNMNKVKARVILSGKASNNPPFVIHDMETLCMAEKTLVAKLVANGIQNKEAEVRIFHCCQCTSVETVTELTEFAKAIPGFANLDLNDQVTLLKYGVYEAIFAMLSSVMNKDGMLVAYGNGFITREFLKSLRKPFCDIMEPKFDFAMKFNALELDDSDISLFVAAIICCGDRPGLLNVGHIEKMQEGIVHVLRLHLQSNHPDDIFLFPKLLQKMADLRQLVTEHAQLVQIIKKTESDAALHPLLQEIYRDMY

[3] = biological target: T3, Peroxisome proliferator-activated receptor delta (Homo sapiens) (UniProt Q03181); test: Modulation of human PPARdelta-LBD expressed in african green monkey COS7 cells co-transfected with Gal4 assessed as activation of transactivation activity at 10 uM by luciferase assay; assay type: cell-based; settings: COS-7
T3 sequence (whole entry): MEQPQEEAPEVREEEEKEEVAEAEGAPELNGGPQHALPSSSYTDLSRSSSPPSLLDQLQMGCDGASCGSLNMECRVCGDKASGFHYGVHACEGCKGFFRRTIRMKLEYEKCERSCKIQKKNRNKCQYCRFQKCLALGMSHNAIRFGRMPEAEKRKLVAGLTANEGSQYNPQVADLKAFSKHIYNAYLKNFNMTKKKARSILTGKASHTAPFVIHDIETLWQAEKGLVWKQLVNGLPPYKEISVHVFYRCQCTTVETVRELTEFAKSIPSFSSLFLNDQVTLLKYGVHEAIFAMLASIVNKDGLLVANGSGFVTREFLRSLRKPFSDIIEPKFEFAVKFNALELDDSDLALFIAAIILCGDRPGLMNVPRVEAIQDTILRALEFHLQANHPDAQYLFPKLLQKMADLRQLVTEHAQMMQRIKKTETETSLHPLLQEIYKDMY

[4] = biological target: T4, Peroxisome proliferator-activated receptor gamma (Homo sapiens) (UniProt P37231); test: Modulation of human PPARgamma-LBD expressed in african green monkey COS7 cells co-transfected with Gal4 assessed as activation of transactivation activity at 10 uM by luciferase assay; assay type: cell-based; settings: COS-7
T4 sequence (whole entry): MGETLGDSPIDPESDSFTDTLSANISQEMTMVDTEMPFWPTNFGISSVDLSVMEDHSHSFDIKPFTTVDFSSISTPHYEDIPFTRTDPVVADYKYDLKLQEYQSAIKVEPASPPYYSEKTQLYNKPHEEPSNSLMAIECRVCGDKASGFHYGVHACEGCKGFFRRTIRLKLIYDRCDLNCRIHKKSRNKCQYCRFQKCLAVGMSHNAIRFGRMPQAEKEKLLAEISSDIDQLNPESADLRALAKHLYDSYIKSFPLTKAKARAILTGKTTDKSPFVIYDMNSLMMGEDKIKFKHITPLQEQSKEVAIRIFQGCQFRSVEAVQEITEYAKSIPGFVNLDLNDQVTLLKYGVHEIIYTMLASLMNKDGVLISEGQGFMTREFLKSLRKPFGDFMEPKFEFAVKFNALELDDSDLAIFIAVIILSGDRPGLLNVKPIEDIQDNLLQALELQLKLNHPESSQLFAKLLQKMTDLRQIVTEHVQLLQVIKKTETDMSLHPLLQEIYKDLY

[5] = biological target: T5, Prostaglandin G/H synthase 1 (Ovis aries) (UniProt P05979); test: Inhibition of ovine COX-1 assessed as residual activity by measuring formation of 12-HHT from arachidonic acid at 10 uM by HPLC analysis
T5 sequence (whole entry): T1 sequence (P05979 whole entry)

[6] = biological target: T6, Prostaglandin G/H synthase 2 (Homo sapiens) (UniProt P35354); test: Inhibition of human recombinant COX-2 assessed as residual activity by measuring formation of 12-HHT from arachidonic acid at 10 uM by HPLC analysis
T6 sequence (whole entry): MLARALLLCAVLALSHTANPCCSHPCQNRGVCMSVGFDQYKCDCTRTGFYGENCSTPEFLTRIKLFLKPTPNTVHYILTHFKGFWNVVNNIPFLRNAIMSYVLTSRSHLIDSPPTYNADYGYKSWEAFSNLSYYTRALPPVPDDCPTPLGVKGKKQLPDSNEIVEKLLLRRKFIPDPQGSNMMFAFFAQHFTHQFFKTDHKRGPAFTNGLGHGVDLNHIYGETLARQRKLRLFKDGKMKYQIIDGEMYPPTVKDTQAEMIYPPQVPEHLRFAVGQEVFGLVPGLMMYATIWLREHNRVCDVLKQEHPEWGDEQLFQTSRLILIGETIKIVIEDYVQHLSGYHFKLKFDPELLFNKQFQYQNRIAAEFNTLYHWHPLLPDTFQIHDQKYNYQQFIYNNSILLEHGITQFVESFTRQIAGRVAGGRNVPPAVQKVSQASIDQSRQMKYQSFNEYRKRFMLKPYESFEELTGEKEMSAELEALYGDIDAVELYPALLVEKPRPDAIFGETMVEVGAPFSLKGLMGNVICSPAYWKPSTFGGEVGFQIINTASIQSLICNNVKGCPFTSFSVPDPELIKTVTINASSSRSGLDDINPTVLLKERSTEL

CHO [7] = test: Cytotoxicity against CHO cells expressing human APP and wild type human presenilin-1 assessed as reduction of cell viability up to 40 uM after 24 hrs by Alamar blue assay; assay type: cell-based, Cricetulus griseus; settings: chinese hamster
[8] = Modulation of gamma-secretase expressed in CHO cells co-expressing human APP and wild type human presenilin-1 assessed as reduction of amyloid beta38 production by ELISA
[9] = Modulation of gamma-secretase expressed in CHO cells co-expressing human APP and wild type human presenilin-1 assessed as inhibition of amyloid beta42 production by ELISA; assay type: cell-based
[10] = Modulation of gamma-secretase expressed in CHO cells co-expressing human APP and wild type human presenilin-1 assessed as increase of amyloid beta38 production by ELISA; assay type: cell-based
CHO [11] = test: Inhibition of gamma-secretase-mediated notch signaling expressed in CHO cells transfected with Gal4-DNA-binding/VP16 transactivation domain assessed as reduction of reporter activity up to 30 uM by luciferase assay; assay type: cell-based
[12] = Selectivity ratio of inhibition of gamma-secretase-mediated notch signaling to modulation of gamma-secretase

Structure (SMILES)	IC50 [1] [µM]	Activity [2]	Activity [3]	Activity [4]	Activity [5] [%]	Activity [6] [%]	Activity (CHO [7])	IC50 [8] [µM]	IC50 [9] [µM]	EC50 [10] [µM]	inhibition (CHO [11])	Ratio [12]
CCCCC(Sc1nc(OCCc2ccccc2)cc(OCCc2ccccc2)n1)C(=O)O (stereo not drawn)	16.7											
CCCCC(Cc1ccc(OCCc2ccccc2)cc1OCCc1ccccc1)C(=O)O (stereo not drawn)		inactive	inactive	inactive	99.1	110	Non-toxic	5				
CCCC/C(=C\c1cc(OCCC2CCCCC2)ccc1OCCC1CCCCC1)C(=O)O		inactive	inactive	75%	76.4	123	Non-toxic		3.9	3.1	inactive	8
